For test [1], the species on record is Rattus norvegicus. The experiment in a line: Compound was tested in vitro for its ability to inhibit histamine release from rat mast cells. Type of test: functional. The note with it: read-out: ED50 (the source's name).
For test [2], the species on record is Rattus norvegicus. The experiment in a line: Dissociation constant was determined in rat pituitary cells. Type of test: cell-based. The note with it: pituitary gland cell.
Test [3] deals with T1, Gonadotropin-releasing hormone receptor (Rattus norvegicus) (UniProt P30969).
T1 sequence (whole entry): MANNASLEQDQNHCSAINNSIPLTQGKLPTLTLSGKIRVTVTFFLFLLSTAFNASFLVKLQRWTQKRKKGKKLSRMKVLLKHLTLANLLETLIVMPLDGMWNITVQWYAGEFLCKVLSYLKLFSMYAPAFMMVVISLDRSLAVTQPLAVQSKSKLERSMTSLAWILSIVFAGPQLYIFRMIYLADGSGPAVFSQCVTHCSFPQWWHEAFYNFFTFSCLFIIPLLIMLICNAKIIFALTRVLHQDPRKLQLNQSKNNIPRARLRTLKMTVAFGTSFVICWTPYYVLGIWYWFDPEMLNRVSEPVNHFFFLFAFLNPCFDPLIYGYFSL
In words: Inhibition of GnRH-mediated LH secretion by cultured pituitary cells. Type of test: functional, cell-based. Particulars: Pituitary gland cell.

The species named for test [4] is Rattus norvegicus. The experiment in a line: GnRH antagonistic dose of compound for 8 rats ovulation out of total 10 using anti-ovulatory assay. It counts as functional.
The species entered for test [5] is Rattus norvegicus. The experiment in a line: GnRH antagonistic dose of compound for 9 rats ovulation out of total 10 using anti-ovulatory assay. It counts as functional.
The species entered for test [6] is Rattus norvegicus. The experiment in a line: GnRH antagonistic dose of compound for 10 rats ovulation out of total 10 using anti-ovulatory assay. Type of test: functional.
For test [7], the species on record is Rattus norvegicus. The experiment in a line: GnRH antagonistic dose of compound for 0 rats ovulation out of total 10 using anti-ovulatory assay in experiment 2. It counts as functional.
The species named for test [8] is Rattus norvegicus. In words: GnRH antagonistic dose of compound for 1 rats ovulation out of total 10 using anti-ovulatory assay in experiment 1. Type of test: functional.
The species entered for test [9] is Rattus norvegicus. In words: GnRH antagonistic dose of compound for 0 rats ovulation out of total 10 using anti-ovulatory assay in experiment 1. Type of test: functional.
Test [10] is filed under the species Rattus norvegicus. The experiment in a line: GnRH antagonistic dose of compound for 8 rats ovulation out of total 16 using anti-ovulatory assay in experiment 1. Type of test: functional.
The species named for test [11] is Rattus norvegicus. The experiment in a line: Compound was evaluated for time course of action on LH secretion in the castrated male rat at a time interval of 1 hr at 125 microg. Type of test: functional.
Test [12] is filed under the species Rattus norvegicus. The experiment in a line: Compound was evaluated for time course of action on LH secretion in the castrated male rat at a time interval of 43 hr at 125 microg. Type of test: functional.
The species entered for test [13] is Rattus norvegicus. The experiment in a line: Compound was evaluated for time course of action on LH secretion in the castrated male rat at a time interval of 67 hr at 125 microg. Type of test: functional.
For test [14], the species on record is Rattus norvegicus. The experiment in a line: Compound was evaluated for time course of action on LH secretion in the castrated male rat at a time interval of 0 hr at 125 microg. It counts as functional.
The species entered for test [15] is Rattus norvegicus. The experiment in a line: Compound was evaluated for time course of action on LH secretion in the castrated male rat at a time interval of 19 hr at 125 microg. Type of test: functional.
The species entered for test [16] is Rattus norvegicus. In words: Compound was evaluated for time course of action on LH secretion in the castrated male rat at a time interval of 49 hr at 125 microg. Type of test: functional.
The species named for test [17] is Rattus norvegicus. In words: Compound was evaluated for time course of action on LH secretion in the castrated male rat at a time interval of 73 hr at 125 microg. It counts as functional.

Each structure is given as a SMILES string. Values after ≈ are worked out from the molar mass of the structure shown.

For orientation: Kd means a measure of binding affinity in units of concentration.

As to `CC(=O)N[C@H](Cc1ccc2ccccc2c1)C(=O)N[C@H](Cc1ccc(F)cc1)C(=O)N[C@H](Cc1c[nH]c2ccccc12)C(=O)N[C@@H](CO)C(=O)N[C@@H](Cc1ccc(O)cc1)C(=O)N[C@H](CCCN=C(N)N)C(=O)N[C@@H](CC(C)C)C(=O)N[C@@H](CCCN=C(N)N)C(=O)N1CCC[C@H]1C(=O)NCC(=O)O`, the EC50 in the test filed under Rattus norvegicus [1] was 0.17 µg/mL (≈ 0.118 µM).
As to `CC(=O)N[C@H](Cc1ccc2ccccc2c1)C(=O)N[C@H](Cc1ccc(Cl)cc1)C(=O)N[C@H](Cc1cccnc1)C(=O)N[C@@H](CO)C(=O)N[C@@H](CCCN=C(N)N)C(=O)N[C@H](Cc1ccc2ccccc2c1)C(=O)N[C@@H](CC(C)C)C(=O)N[C@@H](CCCN=C(N)N)C(=O)N1CCC[C@@H]1C(=O)N[C@H](C)C(=O)O`, in the test listed under Rattus norvegicus [2], the affinity, expressed as Kd, was 5 nM. Further, the Relative potency in test [3] came out at 0.88. In addition, the ED100 in the test filed under Rattus norvegicus [4] stood at 1 µg/kg. Moreover, the EC50 in the test filed under Rattus norvegicus [1] is 1.9 µg/mL (≈ 1.3 µM).
Regarding `CC(=O)N[C@H](Cc1ccc2ccccc2c1)C(=O)N[C@H](Cc1ccc(Cl)cc1)C(=O)N[C@H](Cc1cccnc1)C(=O)N[C@@H](CO)C(=O)N[C@@H](CCCN=C(N)N)C(=O)N[C@H](CCC(=O)O)C(=O)N[C@@H](CC(C)C)C(=O)N[C@@H](CCCN=C(N)N)C(=O)N1CCC[C@H]1C(=O)N[C@H](C)C(=O)O`, the ED100 in the test filed under Rattus norvegicus [5] amounted to 10 µg/kg. Besides, the EC50 in the test listed under Rattus norvegicus [1] was 17 µg/mL (≈ 12.2 µM).
For `COc1ccc(C(=O)CC[C@@H](NC(=O)[C@H](Cc2ccc(O)cc2)NC(=O)[C@H](CO)NC(=O)[C@@H](Cc2cccnc2)NC(=O)[C@@H](Cc2ccc(Cl)cc2)NC(=O)[C@H]2CCCN2C(C)=O)C(=O)N(C)[C@@H](CC(C)C)C(=O)N[C@@H](CCCN=C(N)N)C(=O)N2CCC[C@H]2C(=O)N[C@H](C)C(=O)O)cc1`, the ED100 in the test listed under Rattus norvegicus [6] amounted to 5 µg/kg. Further, the EC50 in the test filed under Rattus norvegicus [1] was 30.3 µg/mL (≈ 21.5 µM).
As to `COc1ccc(C(=O)CC[C@@H](NC(=O)[C@H](Cc2ccc(O)cc2)NC(=O)[C@H](CO)NC(=O)[C@@H](Cc2cccnc2)NC(=O)[C@@H](Cc2ccc(Cl)cc2)NC(=O)[C@H]2CCCN2C(C)=O)C(=O)N(C)[C@@H](CC(C)C)C(=O)N[C@@H](CCCN=C(N)N)C(=O)N2CCC[C@@H]2C(=O)N[C@H](C)C(=O)O)cc1`, the dissociation constant (Kd) in the test filed under Rattus norvegicus [2] stood at 0.31 nM. For the same compound, the Relative potency in test [3] was determined as 0.13.
The matching figures for `CC(=O)N[C@H](Cc1ccc2ccccc2c1)C(=O)N[C@H](Cc1ccc(Cl)cc1)C(=O)N[C@H](Cc1cccnc1)C(=O)N[C@@H](CO)C(=O)N[C@@H](CCCN=C(N)N)C(=O)N[C@H](CCC(=O)O)C(=O)N[C@@H](CC(C)C)C(=O)N[C@@H](CCCN=C(N)N)C(=O)N1CCC[C@@H]1C(=O)N[C@H](C)C(=O)O`: 0.16 nM and 0.09.
Compound `COc1ccc(C(=O)CC[C@@H](NC(=O)[C@H](CCCN=C(N)N)NC(=O)[C@H](CO)NC(=O)[C@@H](Cc2cccnc2)NC(=O)[C@@H](Cc2ccc(Cl)cc2)NC(=O)[C@@H](Cc2ccc3ccccc3c2)NC(C)=O)C(=O)N[C@@H](CC(C)C)C(=O)N[C@@H](CCCN=C(N)N)C(=O)N2CCC[C@H]2C(=O)NCC(=O)O)cc1` gave a Kd in the test filed under Rattus norvegicus [2] of 0.6 nM. Further, the ED100 turned out to be 2.5 µg/kg in the test listed under Rattus norvegicus [7] and 1 µg/kg in the test listed under Rattus norvegicus [8]. Besides, the EC50 in the test filed under Rattus norvegicus [1] amounted to 3.2 µg/mL (≈ 2.17 µM).
In turn, `COc1ccc(C(=O)CC[C@@H](NC(=O)[C@H](CCCN=C(N)N)NC(=O)[C@H](CO)NC(=O)[C@@H](Cc2cccnc2)NC(=O)[C@@H](Cc2ccc(Cl)cc2)NC(=O)[C@@H](Cc2ccc3ccccc3c2)NC(C)=O)C(=O)N[C@@H](CC(C)C)C(=O)N[C@@H](CCCN=C(N)N)C(=O)N2CCC[C@H]2C(=O)N[C@H](C)C(=O)O)cc1` gave a Kd in the test filed under Rattus norvegicus [2] of 0.67 nM. Further, the Relative potency in test [3] came to 1.01. In addition, the ED100 is 1.5 µg/kg in the test listed under Rattus norvegicus [9] and 0.5 µg/kg in the test filed under Rattus norvegicus [10]. In addition, the EC50 in the test filed under Rattus norvegicus [1] stood at 1.6 µg/mL (≈ 1.08 µM). Besides, the LH level in the test listed under Rattus norvegicus [11] worked out at 6.31 ng/mL; in the test filed under Rattus norvegicus [12], 3.27 ng/mL; in the test filed under Rattus norvegicus [13], 3.67 ng/mL; in the test filed under Rattus norvegicus [14] it was 13.38 ng/mL; in the test filed under Rattus norvegicus [15] it was 3.68 ng/mL; in the test filed under Rattus norvegicus [16] it was 2.94 ng/mL. The compound also gave an LH level in the test filed under Rattus norvegicus [17] of 5.06 ng/mL.

The values are drawn from ChEMBL document CHEMBL1123223, “New effective gonadotropin releasing hormone antagonists with minimal potency for histamine release in vitro” (J Med Chem, 1986).
